We go through 18 compounds from paper PMC10291282, “Synthesis, ADMT prediction, and in vitro and in silico α-glucosidase inhibition evaluations of new quinoline–quinazolinone–thioacetamides” (RSC Advances, 2023).

Read-outs that look alike come from different tables or passages of the source. Some results are limits rather than exact numbers.

For data set [1], the target named is T1, α-glucosidase (Saccharomyces cerevisiae, UniProt P53341).
T1 construct: purchased Sigma-Aldrich
Description: biochemical. The format is biochemical. The conditions noted are these: for anti-α-glucosidase activity in words: in comparison to acarbose; for decrease of inhibitory activity relative to compound 9g: replacement or removal of 4-OH of 9g. The method, then:
Yeast form of α-glucosidase (EC3.2.1.20, Saccharomyces cerevisiae, 20 U mg^−1) and p-nitrophenyl glucopyranoside as substrate were purchased from Sigma-Aldrich. […] IC50 values were calculated by the percentage of enzyme inhibition and non-linear regression curve using the logit method.

The target in data set [2] is T1, α-glucosidase. Description: Enzyme kinetics study for α-glucosidase inhibition. The format is biochemical. The method, then: The 20 μL of α-glucosidase solution (1 U mL^−1) was incubated with different concentrations of compound 9g (0, 2.25, 4.5, and 9 μM) for 15 min at 30 °C. After that, the enzymatic reaction was started by adding different concentrations of p-nitrophenyl glucopyranoside (substrate, 1–4 mM), and change in absorbance was measured for 20 min at 405 nm by spectrophotometer (Gen5, Power Wave xs2, BioTek, America).

Data set [3] relates to α-glucosidase. In words: Literature α-glucosidase inhibition of quinoline template A. The conditions noted are these: template A vs acarbose of that study. The format is biochemical.
In data set [4] the target is α-glucosidase. The conditions noted are these: read-out: IC50 against α-glucosidase; Fig. 1, template A study; cited from earlier work.
For data set [5], the target named is α-glucosidase. Further details: method as in PMID 28110817. The conditions noted are these: Fig. 1, template B study; read-out: IC50 against α-glucosidase; cited from earlier work.
[6] abbreviates: yeast α-glucosidase, p-nitrophenyl glucopyranoside substrate, pH 6.8, 37 °C, mean ± SD, read-out: IC50 against α-glucosidase.

T1 sequence (P53341 whole entry): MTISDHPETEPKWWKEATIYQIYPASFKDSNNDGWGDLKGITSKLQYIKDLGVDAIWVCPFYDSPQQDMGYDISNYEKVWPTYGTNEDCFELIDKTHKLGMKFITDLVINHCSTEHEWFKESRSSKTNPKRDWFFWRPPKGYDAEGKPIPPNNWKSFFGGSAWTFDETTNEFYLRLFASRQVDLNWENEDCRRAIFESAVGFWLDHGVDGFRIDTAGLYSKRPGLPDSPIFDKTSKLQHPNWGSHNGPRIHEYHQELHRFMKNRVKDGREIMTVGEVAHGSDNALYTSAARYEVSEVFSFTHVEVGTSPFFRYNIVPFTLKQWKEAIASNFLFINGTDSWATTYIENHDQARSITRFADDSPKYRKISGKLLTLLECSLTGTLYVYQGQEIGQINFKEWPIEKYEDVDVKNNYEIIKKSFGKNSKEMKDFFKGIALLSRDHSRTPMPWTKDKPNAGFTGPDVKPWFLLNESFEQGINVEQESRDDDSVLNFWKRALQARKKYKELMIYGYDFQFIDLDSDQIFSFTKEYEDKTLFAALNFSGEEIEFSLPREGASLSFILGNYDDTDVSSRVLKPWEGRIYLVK

The compound `O=C(CSc1nc2ccccc2cc1-c1nc2ccccc2c(=O)[nH]1)Nc1ccccc1` [9a, 2-{[3-(4-Oxo-3,4-dihydroquinazolin-2-yl)quinolin-2-yl]thio}-N-phenylacetamide] yielded a melting point of 200 to 202 °C. In data set [1], the “anti-α-glucosidase activity in words” value is reported as “potent members” and the “decrease of inhibitory activity relative to compound 9g” value is reported as 2.8 fold. Also, the IC50 in data set [1] (setting [6]) amounted to 25.8 ± 0.6 µM.
As for `Cc1ccc(NC(=O)CSc2nc3ccccc3cc2-c2nc3ccccc3c(=O)[nH]2)cc1` [9b, 2-{[3-(4-Oxo-3,4-dihydroquinazolin-2-yl)quinolin-2-yl]thio}-N-(p-tolyl)acetamide], the melting point was 203 to 205 °C. Further, the IC50 in data set [1] (setting [6]) is > 750 µM.
Take `Cc1cccc(NC(=O)CSc2nc3ccccc3cc2-c2nc3ccccc3c(=O)[nH]2)c1C` [9c, N-(2,3-Dimethylphenyl)-2-{[3-(4-oxo-3,4-dihydroquinazolin-2-yl)quinolin-2-yl]thio}acetamide]: the melting point was 208 to 210 °C. The IC50 in data set [1] (setting [6]) is > 750 µM.
Compound `Cc1cccc(C)c1NC(=O)CSc1nc2ccccc2cc1-c1nc2ccccc2c(=O)[nH]1` [9d, N-(2,6-Dimethylphenyl)-2-{[3-(4-oxo-3,4-dihydroquinazolin-2-yl)quinolin-2-yl]thio}acetamide] showed a melting point of 220 to 222 °C. Moreover, in data set [1] (setting [6]), the IC50 was > 750 µM.
`CCc1ccc(NC(=O)CSc2nc3ccccc3cc2-c2nc3ccccc3c(=O)[nH]2)cc1` [9e, N-(4-Ethylphenyl)-2-{[3-(4-oxo-3,4-dihydroquinazolin-2-yl)quinolin-2-yl]thio}acetamide]: the melting point was 208 to 210 °C. Besides, the IC50 in data set [1] (setting [6]) was > 750 µM.
`COc1ccc(NC(=O)CSc2nc3ccccc3cc2-c2nc3ccccc3c(=O)[nH]2)cc1` [9f, N-(4-Methoxyphenyl)-2-{[3-(4-oxo-3,4-dihydroquinazolin-2-yl)quinolin-2-yl]thio}acetamide] showed a melting point of 203 to 205 °C. Also, in data set [1], the IC50 worked out at 37.7 ± 2.9 µM, the “anti-α-glucosidase activity in words” value is listed as “potent members” and the “decrease of inhibitory activity relative to compound 9g” value worked out at 4.1 fold.
As for `O=C(CSc1nc2ccccc2cc1-c1nc2ccccc2c(=O)[nH]1)Nc1ccc(O)cc1` [9g, N-(4-Hydroxyphenyl)-2-{[3-(4-oxo-3,4-dihydroquinazolin-2-yl)quinolin-2-yl]thio}acetamide], the melting point was 210 to 212 °C. Further, the type of inhibition entry in data set [2] (Lineweaver–Burk plots) is on record as “competitive”. Besides, the affinity in data set [2] (secondary re-plot of Lineweaver–Burk plots, 0, 2.25, 4.5, 9.0 μM inhibitor) corresponds to a Ki of 7 µM. The “fold more potent than the most potent compound among template compounds C” value in data set [1] (comparison with literature compounds C) stood at 8.8 fold. Also, in data set [1], the “anti-α-glucosidase activity in words” value is reported as “potent members”. In addition, the IC50 in data set [1] (setting [6]) came to 9 ± 0.3 µM.
In the case of `O=C(CSc1nc2ccccc2cc1-c1nc2ccccc2c(=O)[nH]1)Nc1ccccc1F` [9h, N-(2-Fluorophenyl)-2-{[3-(4-oxo-3,4-dihydroquinazolin-2-yl)quinolin-2-yl]thio}acetamide], the melting point was 209 to 211 °C. Besides, the “anti-α-glucosidase activity in words” value in data set [1] was “eradicated inhibitory activity”. Also, the IC50 in data set [1] (setting [6]) is > 750 µM.
For `O=C(CSc1nc2ccccc2cc1-c1nc2ccccc2c(=O)[nH]1)Nc1ccc(F)cc1` [9i, N-(4-Fluorophenyl)-2-{[3-(4-oxo-3,4-dihydroquinazolin-2-yl)quinolin-2-yl]thio}acetamide], the melting point was 206 to 208 °C. The “anti-α-glucosidase activity in words” value in data set [1] is reported as “eradicated inhibitory activity”. Moreover, the IC50 in data set [1] (setting [6]) was > 750 µM.
`O=C(CSc1nc2ccccc2cc1-c1nc2ccccc2c(=O)[nH]1)Nc1cccc(Cl)c1` [9j, N-(3-Chlorophenyl)-2-{[3-(4-oxo-3,4-dihydroquinazolin-2-yl)quinolin-2-yl]thio}acetamide]: the melting point was 212 to 214 °C. The “anti-α-glucosidase activity in words” value in data set [1] is on record as “potent members”. Moreover, the half-maximal inhibitory concentration (IC50) in data set [1] (setting [6]) was found to be 53.4 ± 2.3 µM.
Turning to `O=C(CSc1nc2ccccc2cc1-c1nc2ccccc2c(=O)[nH]1)Nc1ccc(Cl)cc1` [9k, N-(4-Chlorophenyl)-2-{[3-(4-oxo-3,4-dihydroquinazolin-2-yl)quinolin-2-yl]thio}acetamide], the melting point fell in the range of 209 to 211 °C. Moreover, the “anti-α-glucosidase activity in words” value in data set [1] is recorded as “potent members”. In data set [1] (setting [6]), the IC50 came to 40.1 ± 1.2 µM.
`O=C(CSc1nc2ccccc2cc1-c1nc2ccccc2c(=O)[nH]1)Nc1ccc(Br)cc1` [9l, N-(4-Bromophenyl)-2-{[3-(4-oxo-3,4-dihydroquinazolin-2-yl)quinolin-2-yl]thio}acetamide] registered a melting point of 208 to 210 °C. Also, in data set [1], the “anti-α-glucosidase activity in words” value was “eradicated inhibitory activity”. Further, the IC50 in data set [1] (setting [6]) is > 750 µM.
The matching figures for `O=C(CSc1nc2ccccc2cc1-c1nc2ccccc2c(=O)[nH]1)Nc1ccc([N+](=O)[O-])cc1` [9m, N-(4-Nitrophenyl)-2-{[3-(4-oxo-3,4-dihydroquinazolin-2-yl)quinolin-2-yl]thio}acetamide]: 217 to 219 °C, “potent members” and 52 ± 1.4 µM.
Turning to `O=C(CSc1nc2ccccc2cc1-c1nc2ccccc2c(=O)[nH]1)NCc1ccccc1` [9n, N-Benzyl-2-{[3-(4-oxo-3,4-dihydroquinazolin-2-yl)quinolin-2-yl]thio}acetamide], the melting point was 201 to 203 °C. In addition, the IC50 in data set [1] (setting [6]) is > 750 µM.
In turn, `Cc1ccc(CNC(=O)CSc2nc3ccccc3cc2-c2nc3ccccc3c(=O)[nH]2)cc1` [9o, N-(4-Methylbenzyl)-2-{[3-(4-oxo-3,4-dihydroquinazolin-2-yl)quinolin-2-yl]thio}acetamide] registered a melting point of 202 to 204 °C. In addition, the IC50 in data set [1] (setting [6]) is > 750 µM.
For the compound `O=C(CSc1nc2ccccc2cc1-c1nc2ccccc2c(=O)[nH]1)NCc1ccc(F)cc1` [9p, N-(4-Fluorobenzyl)-2-{[3-(4-oxo-3,4-dihydroquinazolin-2-yl)quinolin-2-yl]thio}acetamide], the melting point lay in the range of 205 to 207 °C. In data set [1] (setting [6]), the IC50 is > 750 µM.
Regarding `O=C(O)c1ccc2ccccc2n1` [Compound A], the “fold more potent than acarbose” value in data set [3] is on record as 7.3 fold. Also, the IC50 in data set [4] is 9.1 ± 2.3 µM.
With `O=c1[nH]c(-c2ccc(Cl)cc2)nc2ccccc12` [Compound B], the IC50 in data set [5] is 12.5 ± 0.1 µM.
